Test results published in patent US20220252625A1, “TREATMENT AND DIAGNOSIS OF CHRONIC INFLAMMATORY CONDITIONS IN THE LOWER URINARY TRACT” (SELECTIMMUNE PHARMA AB, priority 2019, published 2022).
Entries after “also recorded” stand apart in the source; their conditions may differ. Like-named read-outs stand apart in the source and are kept apart here.

Assays:
[1] = test system: Substance P; test: Ten-patient CPPS trial: urine neuropeptides; format: in vivo, human; details: P<0.001
Method: A significant reduction in pain, urgency and frequency of urination was recorded in 9/10 patients (FIGS. 7c, 7d and 7e). Laboratory samples were obtained at diagnosis, after the initiation of anakinra treatment (n=10), during the “treatment break” and after continuation of anakinra treatment (n=9). Urine neuropeptides involved in the pain response (Substance P) were inhibited, with a biphasic response following the symptom score (FIG. 7f).

[2] = test system: patients with chronic cystitis and CPPS; test: Open Anakinra trial, symptom score; format: in vivo, human
Method: The applicants have performed an open Anakinra trial in patients with chronic inflammatory conditions in the lower urinary tract, specifically chronic cystitis and CPPS. This structured observational study to investigate the effect of treatment with Anakinra in patients suffering from chronic cystitis and CPPS.
Inclusion visit: Patient is informed about the study and is included after signed informed consent is obtained. A structured interview and clinical investigation is performed. The disease severity is evaluated using a symptom score. Follow-up visits are booked.
A structured interview and clinical investigation is performed. Symptom severity is recorded.
Treatment with Anakinra is started and continued for seven days (until next visit).
Evaluation of effect after one week of treatment with Anakinra. A structured interview and clinical investigation are performed. Symptom severity is evaluated. Patients with no treatment effect are excluded from further treatment.
Follow-up after treatment pause. A structured interview and clinical investigation is performed. Symptom severity is evaluated. If the patient has relapse, Anakinra treatment is resumed.
Follow-up with evaluation of effect after three weeks of treatment with Anakinra. A structured interview and clinical investigation is performed. Symptom severity is evaluated.
Final visit after pause of treatment with Anakinra. A structured interview and clinical investigation is performed. Symptom severity is evaluated.
During patient visits, structured interviews evaluating symptoms (including consumption of medications) and clinical investigations are performed. Throughout the study period, the patients make daily symptom scores regarding pain, urination, sense of urgency and quality of life following a structured formula.

[3] = test system: Substance P; test: Urine Substance P (SP) concentration, patients with chronic cystitis; format: in vivo, human
Method: Samples: Blood and urine samples for investigation of inflammatory processes as well as genetic and proteomic analyses.
For evaluation of the levels of systemic and local inflammatory processes, analyses of CRP, neutrophil count and Interleukins are performed in serum and urine.
To be able to define a treatment group where anakinra might serve as an effective therapeutic option, we searched for urine biomarkers. In addition to patient urine samples, samples were collected from healthy controls to compare urine concentrations of IL-1β and Substance P (SP). […] In contrast, SP concentrations was increased in patients during maximum symptoms (209 vs 75 pg/ml, P=0.003), indicating a biomarker for bladder inflammation (FIG. 2).

[4] = test system: NK1R and its ligand SP; details: mice; cited from earlier work
[5] = test system: neuro-inflammation, TLR dependent pattern recognition and IL-1 signaling; IL-1R1 dependent gene network; test: BPS trial: transcriptomic analysis of peripheral blood RNA; format: in vivo, human; details: for gene expression, words: peripheral blood RNA
Excerpt: (§1) a) Schematic of the study protocol. Ten patients with a long history of BPS (ref EAU guidelines) were enrolled after informed consent and instructed to fill in a questionnaire detailing frequency of urination, pain, frequency of pain medication and quality of life. Laboratory samples were obtained at diagnosis, after the initiation of Kineret treatment (n=10), during the “treatment break” and after continuation of Kineret treatment (n=9). Neuropeptides involved in the pain response (Substance P) were quantified in urine. Peripheral blood RNA was subjected to genome wide transcriptomic analysis to define molecular effects of Kineret treatment.
To further understand the molecular basis of these effects, gene expression was analyzed longitudinally in RNA samples obtained; at onset, when the patients were in pain; at the time of maximum treatment effect in the first round; when pain returned during the treatment break; after reintroduction of Anakinra and at follow up, after 1-2 years of treatment. […] Due to the pronounced effect on IL-1 related genes, we further investigated a gene network downstream of IL-1R1. In 8 out of 10 patients a marked reduction in IL-1R1 dependent gene expression was detected, primarily genes including CXCL1, IL1RAP CXCL3 and the IL1R1 gene itself.

[6] = test system: neuroinflammation and IL-1-dependent gene expression; test: Ten-patient CPPS trial: gene expression analysis of peripheral blood RNA; format: in vivo, human
Excerpt: Blood samples for DNA- and RNA-analyses as well as urine samples for proteomics are obtained throughout the study.

[7] = test system: murine cystitis model; details: mice, cited from earlier work
[8] = test system: Substance P; test: BPS trial: urine Substance P / neuropeptide levels; format: in vivo, human; details: for urine SP / neuropeptide levels, words: in vivo
Excerpt: as §1

With “anakinra: interleukin-1 receptor antagonist (r-metHuIL-1ra) produced in Escherichia coli; recombinant, slightly modified version of the human interleukin-1 receptor antagonist protein” the “urine neuropeptide (Substance P) levels, words” value [1] was “markedly reduced; also recorded: inhibited”, the “patients in whom treatment was proven effective (decrease in symptom scoring)” value ([2]; in vivo) was 60% and the “Symptom Score Decrease at 1 week of treatment (number of patients)” value ([2]; of 15 patients recruited) was 9. For the same substance, the “Symptom Score No Decrease at 1 week of treatment (number of patients)” value ([2]; of 15 patients recruited) was 6, the “urine SP levels after Anakinra treatment” value ([3]; FIG. 3) was “reduced” and the “urine SP concentration at time of minimum symptom, after treatment” value ([3]; paired samples, P=0.02) was 136 pg/mL. The “urine SP concentration at time of maximum symptom” value ([3]; paired samples, baseline of the comparison, P=0.02) was 243 pg/mL, the “expression of NK1R and SP in the bladder mucosa, words” value [4] was “reduced the expression of the pain receptor NK1R and its ligand SP” and the “patients with marked reduction in IL-1R1 dependent gene expression” value ([5]; genes including CXCL1, IL1RAP, CXCL3, IL1R1) was 8 out of 10. The “gene expression, words” value [5] was “inhibited by treatment”, the “gene expression, words” value ([5]; listed as Kineret) was “inhibited” and the “gene expression at the RNA level, words” value [6] was “inhibited neuroinflammation and IL-1-dependent gene expression; also recorded: reduction in neuro-inflammation”. For the same substance, the “bacterial clearance, words” value [7] was “accelerate bacterial clearance”, the “bladder inflammation, words” value [7] was “dramatically reduce bladder inflammation” and the “bacterial clearance, words” value ([7]; listed as Kineret) was “increased bacterial clearance”. For the same substance, the “bladder inflammation, words” value ([7]; listed as Kineret) was “dramatically reduced bladder inflammation”, the “patients with reduced SP levels” value ([8]; first treatment round) was 9/10 and the “urine SP / neuropeptide levels, words” value [8] was “markedly decreased”. For the same substance, the “urine SP / neuropeptide levels, words” value ([8]; listed as Kineret) was “rapid reduction”.
